Source: patent US11167015B2, “Arginine and its use as a T cell modulator” (INSTITUTE FOR RESEARCH IN BIOMEDICINE, priority 2016, dated 2021)

What was measured:
[1] = tested on: human naïve CD4+ T cells; assay: T cell proliferation (CellTrace Violet dilution); type: cell-based
Description: FIG. 10. […] (A) Kinetics of T cell proliferation. Human naïve CD4+ T cells were labeled with CellTraceViolet (CTV) and activated in Ctrl medium or in L-Arg medium or in medium supplemented with 3 mM D-arginine or 3 mM L-arginine together with 3 mM L-lysine. Cell divisions were monitored at 48 h and 72 h by flow cytometry. (B) CTV-labeled CD4+ T cells were activated in normal medium or L-Arg medium and the dilution of CTV was measured over time by flow cytometry. n=5 from two donors. (C) 3H-L-arginine uptake by 3 day-activated CD4+ T cells during a 15 minutes pulse. Where indicated, 3 mM L-arginine, D-arginine or L-lysine was added to the culture medium as a competitive uptake inhibitor. n=7 for control, n=9 for L-Arg, n=5 for D-Arg, and n=9 for L-Lys. Bars represent the s.e.m.

[2] = tested on: 72 h-activated T cells; assay: Glucose consumption assay; type: cell-based, human; details: L-arginine supplementation, 24 h in fresh medium
Description: FIG. 3. L-arginine globally influences metabolism of activated human T cells. […] Shown are only metabolites with a Log 2 fc>1 and an adjusted p value of <0.05; n=12 from two donors. Log 2 fold change between 0 and >+2 for L-Orn and L-Arg exemplarily indicated as “high”. (B) Differential analysis of the glycolytic pathway between naïve CD4^+ T cells cultured in L-Arg medium or Ctrl medium, 96 h after activation. Log 2 fold changes of proteins and metabolites are color-coded. […] 3-P-Glycerate and 2-P-Glycerate could not be distinguished as they have the same mass. (C) 72 h-activated T cells were plated in fresh medium and glucose consumption was determined enzymatically after 24 h; n=9 from three donors. (D) Seahorse experiment performed with activated (96 h) T cells from one donor. Oligomycin was injected after 56 min, FCCP after 96 min, and antimycin (to inhibit the respiratory chain) after 136 min. Data are representative of 5 independent experiments with different donors. (E,F) Relative oxygen consumption rate (OCR) (E) and relative spare respiratory capacity (SRC) (F) of activated (96 h) T cells; n=12 from three donors. ****p<0.0001 (Student's t-test).
The amount of glucose in media was determined using the Glucose (GO) Assay Kit from Sigma. Consumption was calculated as the difference between glucose content in reference medium (co-incubated medium without cells) and cell supernatants.

[3] = tested on: activated CD8+ T cells; assay: IL-2 withdrawal assay and assessment of cell viability, CD8+ T cells; type: cell-based, human; details: L-arginine supplementation, 5 days after IL-2 withdrawal
[4] = tested on: mouse CD8+ OT-I T cells; assay: Survival of activated OT-I T cells in vitro after IL-2 withdrawal; type: cell-based; details: L-arginine-supplemented medium 4 days
Excerpt: FIG. 7. CD8+ T cells with increased L-arginine levels display improved anti-tumor activity in vivo. (A) Survival of activated mouse CD8+OT-I T cells (4 d) after IL-2 withdrawal. Data points represent the difference between the percentage of living T cells from cultures performed in L-Arg medium or Ctrl medium; n=11. (B) CD90.1+CD45.1/2+ and CD90.1+CD45.1+ naïve CD8+ OT-I T cells were activated for 4 days in Ctrl medium or L-Arg medium, respectively. Equal numbers of the congenically marked activated OT-I cells were co-transferred into Cd3e−/− mouse and the number of living T cells was measured in pooled spleen and lymph nodes at the indicated time points; n=3 at each time point. (C) Naïve CD8+ OT-I T cells were activated with CD3+CD28 antibodies in L-Arg medium or control (Ctrl) medium. Five days after activation, the percentage of Tcm-like cells (CD44hi, CD62L+) was measured by flow cytometry; n=15. (D) Naïve OT-I CD8+ T cells were activated in L-Arg medium or Ctrl medium and IFN-γ was quantified in culture supernatants after 5 days; n=15. (E) Same as in (D) but T cells were re-activated on day 5 day with PMA/Ionomycin; n=15. (F, G) B16.OVA melanoma cells were injected into C57BL/6 mice and tumors were allowed to grow for 10 days. […] Tumor burden (F) and survival (G) were assessed over time. […] In (G) *p<0.05 as determined by log-rank test comparison between curves. […]

[5] = tested on: T cell proteome; assay: Limited proteolysis and mass spectrometry (structural changes); type: binding, human
[6] = tested on: OT-I T cells; assay: Adoptive T cell transfer and survival experiment; type: in vivo; details: activated 4 days in L-Arg medium, transfer into Cd3e−/− mice
Description: CD90.1^+ CD45.1/2^+ OT-I cells were activated with plate-bound antibodies to CD3 and CD28 in control medium. OT-I cells with a different congenic marker (CD90.1^+ CD45.1^+) were activated in L-arginine-supplemented medium. At day 4, equal cell numbers were injected into the tail vein of Cd3e^−/− host mice. To study the expansion of OT-I effector cells, host mice were sacrificed after 1, 3, 6, and 10 days post transfer and CD90.1^+ OT-I T cells from lymphoid organs (spleen and lymph nodes) were enriched with anti-CD90.1 micro beads (Miltenyi Biotec), stained and analysed by FACS. The following monoclonal antibodies were used α-CD8α (53-6.7), α-CD44 (1M7), α-CD62L (MEL-14), α-CD90.1 (OX-7), α-CD90.2 (30-H12), α-CD45.1 (A20), α-CD45.2 (104).

[7] = tested on: natural killer cells; details: oral administration, healthy volunteers; cited from earlier work

## N=C(N)NCCC[C@H](N)C(=O)O [L-arginine]
[1]; 3 mM in medium
  onset of proliferation: slightly delayed onset
[1]; L-arginine-supplemented medium
  doubling rates once proliferation started: comparable to controls
[2]
  glucose consumption: consumed less glucose
[3]
  survival of activated CD8+ T cells in the absence of exogenous cytokines: significantly increased
[4]
  survival capacity of OT-I T cells in vitro: higher survival capacity
[5]; 1 mM L-arginine
  protein domains affected by structural changes: affect the PHD domain of BAZ1B and the AT-hook DNA-binding domain of PSIP1
[5]; 1 mM, not affected by D-arginine or L-ornithine, six donors
  number of proteins (out of 5,856 identified) with structural change exclusively in response to L-arginine: 20
[6]
  survival capacity of OT-I T cells in vivo: higher survival capacity
[7]
  numbers and activity of natural killer cells: enhance the numbers and activity of natural killer cells
